Drawing on US12559496B2, “Imidazopyrimidines as modulators of IL-17” (Janssen Pharmaceutica NV, priority 2020, dated 2026), this text covers IC50 for eight compounds.

As usually defined, the IC50 is the point on the concentration scale where inhibition reaches its midpoint.

Assay [1] deals with IL-17A(FLAG-Tagged): IL-17RA(His-Tagged) (Homo sapiens, UniProt Q16552, K93Q). Nature of the assay: IL-17A(FLAG-Tagged): IL-17RA(His-Tagged) Binding Disruption Eu-HTRF Assay. Conditions: disruption of IL-17A/IL-17RA binding; simple average if tested more than once. From the text: IL-17A(FLAG-Tagged): IL-17RA(His-Tagged) Binding Disruption Eu-HTRF Assay
An antibody directed against the FLAG tag of IL-17A (SEQ ID NO: 1) is labeled with the HTRF donor chromophore (Europium-cryptate). IL-17A is present as a dimer that is “locked into” this quaternary structure due to the formation of loop-spanning […] disulfide bridges. The construct of IL-17RA used in the assay excludes the […] portion of the receptor and is fused to a C-terminal 10×His tag (SEQ ID NO:2). An antibody directed against the His tag of the IL-17RA chimera is labeled with the HTRF acceptor chromophore (“D2”). The fluorescence-resonance energy transfer (FRET) depends on the vicinity of the donor chromophore to the acceptor, and interruption of the binding between the IL-17A and IL-17RA causes the reduction/loss of FRET. Therefore, this assay allows to evaluate the compound effect on the binding IL-17A and IL-17RA by monitoring the fluorescence intensity of donor vs acceptor. The assay is run as described below.
40 nL of 2-fold serial diluted compound solution for total 22 dilution points is added into each well of a 1536-well, white, low-volume, non-binding plate (Greiner #782904), then 2 μL of FLAG tagged IL-17A at 2× final concentration (2.5 nM) in solution of PBS+0.01% Triton-X100 is added to each well. The assay plate is briefly centrifuged then incubated for 1 h at rt. A mixed solution is prepared containing 2×5 nM 10HIS×IL-17RA, 2×2.5 nM Eu-anti-FLAG (CISBIO), 2×5 nM D2-anti-HIS (CISBIO) in PBS+0.01% Triton-X100+200 mM Potassium Fluoride (Sigma 60238) and 2 μL of mix is added to each well of the assay plate. The plate is briefly centrifuged then incubated for 2 h at rt. The HTRF intensities at the wavelength of donor (620 nm) and acceptor (665 nm) are measured using BMG Pherastar. The ratio between intensities at two wavelengths is calculated and plotted against the compound concentration and the data is fitted to a one-site competition model to yield IC50 of the compound.

For assay [2], the system named is IL-17A-induced G-CSF production in human normal keratinocytes (NHK). The assay is described as follows: NHK Assay: IL-17A-induced G-CSF production in human normal keratinocytes. In kind it is cell-based. Conditions: 24 h, IL-17A 5 ng/mL, 5% FBS, simple average if tested more than once. As for the experimental part:
IL-17A acts directly on keratinocytes through binding to dimeric receptor IL-17RA/RC and drives the production of a number of inflammatory mediators known to be elevated in psoriasis lesional tissue. IL-17A small molecule inhibitors that block the IL-17A to interact with IL-17R would inhibit the IL-17A signaling in its targeted cells such as keratinocytes. The compound functional activity is evaluated for its impact on IL-17A-induced G-CSF production in human normal keratinocytes (NHK).
Adult normal human keratinocytes are cultured in keratinocyte growth medium (Lonza) in a flask till reaching ˜ 90% confluence, then cells are transferred to a 384-well plate at density of 3000-4000 cell/well. Recombinant human IL-17A (Gibco PHC9174) is pre-incubated with titrated compound or DMSO for 1 h at rt then added to the cell culture plate. The final concentration of IL-17A is 5 ng/mL and DMSO is 0.2%, in the culture containing 5% FBS. Cells are cultured/treated for 24 h at 37° C. Supernatants are collected and G-CSF production is measured through HTRF technology using Human G-CSF Kit (CisBio). G-CSF concentration was extrapolated from the standard curve and IC50 is determined using GraphPad Prism. Cell viability is also evaluated using CellTiter-Glo kit (Promega) and effect of compound on cell viability is compared to DMSO control.

UniProt Q16552, sequence (Q16552 with tags, fused parts or gaps K93Q): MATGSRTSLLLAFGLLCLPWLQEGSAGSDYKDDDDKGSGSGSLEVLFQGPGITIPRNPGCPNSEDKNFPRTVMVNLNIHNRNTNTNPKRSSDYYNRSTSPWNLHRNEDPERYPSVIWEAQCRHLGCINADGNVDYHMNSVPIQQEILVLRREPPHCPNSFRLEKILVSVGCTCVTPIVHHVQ

In the case of `O=C(CCC(F)(F)F)N[C@H](c1ccn2cc([C@@H](NC(=O)c3conc3C3CC3)C3CCC(F)(F)CC3)nc2n1)C1CC1` [Example 37, 3-Cyclopropyl-N—((S)-(7-((S)-cyclopropyl(4,4,4-trifluorobutanamido)methyl)imidazo[1,2-a]pyrimidin-2-yl)(4,4-difluorocyclohexyl)methyl)isoxazole-4-carboxamide], the IC50 in assay [1] was 1400 nM; in assay [2] (Homo sapiens, Keratinocyte), above 20000 nM.
Taken in the same sequence, the figures for `O=C(CC1CC1(F)F)N[C@@H](c1ccn2cc([C@@H](NC(=O)c3ncnn3CC3CC3)C3CCC(F)(F)CC3)nc2n1)C1CC1` (single isomer, unassigned) [Example 55, N—((S)-(7-((R)-Cyclopropyl(2-((S*)-2,2-difluorocyclopropyl)acetamido)methyl)imidazo[1,2-a]pyrimidin-2-yl)(4,4-difluorocyclohexyl)methyl)-1-(cyclopropylmethyl)-1H-1,2,4-triazole-5-carboxamide] were 570 nM and 1100 nM.
With `O=C(CC1CC(F)(F)C1)N[C@@H](c1ccn2cc([C@@H](NC(=O)c3conc3CCC(F)(F)F)C3CCC(F)(F)CC3)nc2n1)C1CC1` [Example 26, N—((S)-(7-((R)-Cyclopropyl(2-(3,3-difluorocyclobutyl)acetamido)methyl)imidazo[1,2-a]pyrimidin-2-yl)(4,4-difluorocyclohexyl)methyl)-3-(3,3,3-trifluoropropyl)isoxazole-4-carboxamide], the IC50 in assay [1] was 130 nM; in assay [2] (Homo sapiens, Keratinocyte), 110 nM.
The corresponding values for `O=C(CCC(F)(F)F)N[C@@H](c1ccn2cc([C@@H](NC(=O)c3conc3C3CC3)C3CCC(F)(F)CC3)nc2n1)C1CC1` [Example 36, 3-Cyclopropyl-N—((S)-(7-((R)-cyclopropyl(4,4,4-trifluorobutanamido)methyl)imidazo[1,2-a]pyrimidin-2-yl)(4,4-difluorocyclohexyl)methyl)isoxazole-4-carboxamide] are 220 nM and 190 nM.
`O=C(CCC(F)(F)F)NC(c1ccn2cc([C@@H](NC(=O)c3ccn(CCC(F)(F)F)n3)C3CCC(F)(F)CC3)nc2n1)C1CC1` (single isomer, unassigned) [Example 42, N—((S)-(7-((S*)-Cyclopropyl(4,4,4-trifluorobutanamido)methyl)imidazo[1,2-a]pyrimidin-2-yl)(4,4-difluorocyclohexyl)methyl)-1-(3,3,3-trifluoropropyl)-1H-pyrazole-3-carboxamide]: the IC50 in assay [1] came to 480 nM; in assay [2] it was 520 nM.
Regarding `Cc1nonc1C(=O)N[C@H](c1cn2ccc([C@H](NC(=O)CC3CC3(F)F)C3CC3)nc2n1)C1CCC(F)(F)CC1` (single isomer, unassigned) [Example 51, N—((S)-(7-((R)-Cyclopropyl(2-((S*)-2,2-difluorocyclopropyl)acetamido)methyl)imidazo[1,2-a]pyrimidin-2-yl)(4,4-difluorocyclohexyl)methyl)-4-methyl-1,2,5-oxadiazole-3-carboxamide], the concentration for half-maximal inhibition (IC50) in assay [1] was found to be 360 nM; in assay [2] (Homo sapiens, Keratinocyte), 2000 nM.
Taken in the same sequence, the figures for `O=C(CCC(F)(F)F)N[C@@H](c1ccn2cc([C@@H](NC(=O)c3cnn(CC4CC4)n3)C3CCC(F)(F)CC3)nc2n1)C1CC1` [Example 34, N—((S)-(7-((R)-Cyclopropyl(4,4,4-trifluorobutanamido)methyl)imidazo[1,2-a]pyrimidin-2-yl)(4,4-difluorocyclohexyl)methyl)-2-(cyclopropylmethyl)-2H-1,2,3-triazole-4-carboxamide] were 240 nM and 580 nM.
On to `CC(C)n1nccc1C(=O)N[C@H](c1nc2nc([C@H](NC(=O)CCC(F)(F)F)C3CC3)ccn2c1F)C1CCC(F)(F)CC1` [Example 35, N—((S)-(7-((R)-Cyclopropyl(4,4,4-trifluorobutanamido)methyl)-3-fluoroimidazo[1,2-a]pyrimidin-2-yl)(4,4-difluorocyclohexyl)methyl)-1-isopropyl-1H-pyrazole-5-carboxamide], for which the IC50 amounted to 810 nM in assay [1] and 950 nM in assay [2] (Homo sapiens, Keratinocyte).
